ChEMBL document CHEMBL4715697, “Synthesis and biological activity of benzamide DNA minor groove binders” (2016)

How the values were obtained:
PC-3 = test: Growth inhibition of human PC-3 cells assessed as cell growth at 10 uM incubated for 48 hrs by sulforhodamine B assay relative to control; type: functional; settings: read-out: Activity
MDA-MB-468 = test: Growth inhibition of human MDA-MB-468 cells assessed as cell growth at 10 uM incubated for 48 hrs by sulforhodamine B assay relative to control; type: functional; settings: read-out: Activity
CCRF-CEM = test: Growth inhibition of human CCRF-CEM cells assessed as cell growth at 10 uM incubated for 48 hrs by sulforhodamine B assay relative to control; type: functional; settings: read-out: Activity
SK-MEL-5 [1] = test: Growth inhibition of human SK-MEL-5 cells incubated for 48 hrs by sulforhodamine B assay; type: functional
COLO 205 = test: Growth inhibition of human COLO 205 cells assessed as cell growth at 10 uM incubated for 48 hrs by sulforhodamine B assay relative to control; type: functional; settings: read-out: Activity
NCI-H226 = test: Growth inhibition of human NCI-H226 cells assessed as cell growth at 0.1 uM incubated for 48 hrs by sulforhodamine B assay relative to control; type: functional; settings: read-out: Activity
NCI-H322M [2] = test: Growth inhibition of human NCI-H322M cells assessed as cell growth at 100 uM incubated for 48 hrs by sulforhodamine B assay relative to control; type: functional; settings: read-out: Activity
U-251 = test: Growth inhibition of human U-251 cells incubated for 48 hrs by sulforhodamine B assay; type: functional
SNB-75 [3] = test: Growth inhibition of human SNB-75 cells assessed as cell growth at 0.1 uM incubated for 48 hrs by sulforhodamine B assay relative to control; type: functional; settings: read-out: Activity
OVCAR-4 = test: Growth inhibition of human OVCAR-4 cells assessed as cell growth at 10 uM incubated for 48 hrs by sulforhodamine B assay relative to control; type: functional; settings: read-out: Activity
SF-295 = test: Growth inhibition of human SF-295 cells assessed as cell growth at 10 uM incubated for 48 hrs by sulforhodamine B assay relative to control; type: functional; settings: read-out: Activity
786-0 [4] = test: Growth inhibition of human 786-0 cells assessed as cell growth at 0.1 uM incubated for 48 hrs by sulforhodamine B assay relative to control; type: functional; settings: read-out: Activity
OVCAR-3 [5] = test: Growth inhibition of human OVCAR-3 cells assessed as cell growth at 1 uM incubated for 48 hrs by sulforhodamine B assay relative to control; type: functional; settings: read-out: Activity
A498 = test: Growth inhibition of human A498 cells assessed as cell growth at 10 uM incubated for 48 hrs by sulforhodamine B assay relative to control; type: functional; settings: read-out: Activity
LOX IMVI = test: Growth inhibition of human LOX IMVI cells assessed as cell growth at 10 uM incubated for 48 hrs by sulforhodamine B assay relative to control; type: functional; settings: read-out: Activity
SK-MEL-5 [6] = test: Growth inhibition of human SK-MEL-5 cells assessed as cell growth at 10 uM incubated for 48 hrs by sulforhodamine B assay relative to control; type: functional; settings: read-out: Activity
OVCAR-3 [7] = test: Growth inhibition of human OVCAR-3 cells assessed as cell growth at 0.01 uM incubated for 48 hrs by sulforhodamine B assay relative to control; type: functional; settings: read-out: Activity
NCI/ADR-RES = test: Growth inhibition of human NCI/ADR-RES cells assessed as cell growth at 10 uM incubated for 48 hrs by sulforhodamine B assay relative to control; type: functional; settings: read-out: Activity
UO-31 [8] = test: Growth inhibition of human UO-31 cells assessed as cell growth at 1 uM incubated for 48 hrs by sulforhodamine B assay relative to control; type: functional; settings: read-out: Activity
UO-31 [9] = test: Growth inhibition of human UO-31 cells assessed as cell growth at 100 uM incubated for 48 hrs by sulforhodamine B assay relative to control; type: functional; settings: read-out: Activity
NCI-H322M [10] = test: Growth inhibition of human NCI-H322M cells assessed as cell growth at 0.1 uM incubated for 48 hrs by sulforhodamine B assay relative to control; type: functional; settings: read-out: Activity
SK-MEL-28 [11] = test: Growth inhibition of human SK-MEL-28 cells assessed as cell growth at 0.01 uM incubated for 48 hrs by sulforhodamine B assay relative to control; type: functional; settings: read-out: Activity
HCT-15 = test: Growth inhibition of human HCT-15 cells assessed as cell growth at 100 uM incubated for 48 hrs by sulforhodamine B assay relative to control; type: functional; settings: read-out: Activity
SW-620 = test: Growth inhibition of human SW-620 cells assessed as cell growth at 10 uM incubated for 48 hrs by sulforhodamine B assay relative to control; type: functional; settings: read-out: Activity
[12] = tested on: Poly(dA-dT)oligonucleotide; test: Displacement of ethidium bromide from minor groove of poly(dA:dT) dsDNA (unknown origin) by fluorescence spectrophotometry; type: nucleic-acid assay
Hs-578T = test: Growth inhibition of human Hs-578T cells assessed as cell growth at 10 uM incubated for 48 hrs by sulforhodamine B assay relative to control; type: functional; settings: read-out: Activity
SF-539 [13] = test: Growth inhibition of human SF-539 cells assessed as cell growth at 10 uM incubated for 48 hrs by sulforhodamine B assay relative to control; type: functional; settings: read-out: Activity
SK-MEL-28 [14] = test: Growth inhibition of human SK-MEL-28 cells assessed as cell growth at 10 uM incubated for 48 hrs by sulforhodamine B assay relative to control; type: functional; settings: read-out: Activity
MDA-MB-231 = test: Growth inhibition of human MDA-MB-231 cells assessed as cell growth at 100 uM incubated for 48 hrs by sulforhodamine B assay relative to control; type: functional; settings: read-out: Activity
SK-OV-3 = test: Growth inhibition of human SK-OV-3 cells assessed as cell growth at 10 uM incubated for 48 hrs by sulforhodamine B assay relative to control; type: functional; settings: read-out: Activity
T47D = test: Growth inhibition of human T47D cells incubated for 48 hrs by sulforhodamine B assay; type: functional
SF-539 [15] = test: Growth inhibition of human SF-539 cells assessed as cell growth at 100 uM incubated for 48 hrs by sulforhodamine B assay relative to control; type: functional; settings: read-out: Activity
SNB-75 [16] = test: Growth inhibition of human SNB-75 cells assessed as cell growth at 10 uM incubated for 48 hrs by sulforhodamine B assay relative to control; type: functional; settings: read-out: Activity
786-0 [17] = test: Growth inhibition of human 786-0 cells assessed as cell growth at 10 uM incubated for 48 hrs by sulforhodamine B assay relative to control; type: functional; settings: read-out: Activity
[18] = tested on: Poly(dA-dT)oligonucleotide; test: Binding affinity to minor groove of poly(dA:dT) dsDNA (unknown origin) assessed as change in melting temperature by UV-vis spectrophotometry based DNA melting assay; type: nucleic-acid assay
UACC-257 = test: Growth inhibition of human UACC-257 cells assessed as cell growth at 10 uM incubated for 48 hrs by sulforhodamine B assay relative to control; type: functional; settings: read-out: Activity
DU-145 = test: Growth inhibition of human DU-145 cells assessed as cell growth at 10 uM incubated for 48 hrs by sulforhodamine B assay relative to control; type: functional; settings: read-out: Activity
SK-MEL-2 = test: Growth inhibition of human SK-MEL-2 cells assessed as cell growth at 0.1 uM incubated for 48 hrs by sulforhodamine B assay relative to control; type: functional; settings: read-out: Activity
[19] = read-out: LC50 (the source's name)
[20] = read-out: pLC50 (the source's name) (converted)

CC(=O)Nc1cc(CCl)cc(NC(=O)c2ccc(C(=O)Nc3cccc(NC(=O)CCCN(C)C)c3)cc2)c1
growth at 10 µM (PC-3): 104%
growth at 10 µM (MDA-MB-468): 91%
growth at 10 µM (CCRF-CEM): 114%
GI50 (SK-MEL-5 [1]; read-out: GI50): > 100 µM
LC50 (SK-MEL-5 [1]; read-out: LC50): > 100 µM
TGI (SK-MEL-5 [1]; read-out: TGI): > 100 µM
GI50 (SK-MEL-5 [1]; read-out: pGI50 (converted)): > 100 µM
LC50 (SK-MEL-5 [1]; read-out: pLC50 (converted)): > 100 µM
TGI (SK-MEL-5 [1]; read-out: pTGI): > 100 µM
growth at 10 µM (COLO 205): 105%
growth at 0.1 µM (NCI-H226): 92%
growth at 100 µM (NCI-H322M [2]): 103%
GI50 (U-251; read-out: GI50): > 100 µM
CC50 (U-251; [19]): > 100 µM
TGI (U-251; read-out: TGI): > 100 µM
GI50 (U-251; read-out: pGI50 (converted)): > 100 µM
CC50 (U-251; [20]): > 100 µM
TGI (U-251; read-out: pTGI): > 100 µM
growth at 0.1 µM (SNB-75 [3]): 77%
growth at 10 µM (OVCAR-4): 99%
growth at 10 µM (SF-295): 66%
growth at 0.1 µM (786-0 [4]): 104%
growth at 1 µM (OVCAR-3 [5]): 109%
growth at 10 µM (A498): 87%
growth at 10 µM (LOX IMVI): 92%
growth at 10 µM (SK-MEL-5 [6]): 93%
growth at 0.01 µM (OVCAR-3 [7]): 112%
growth at 10 µM (NCI/ADR-RES): 100%
growth at 1 µM (UO-31 [8]): 97%
growth at 100 µM (UO-31 [9]): 113%
growth at 0.1 µM (NCI-H322M [10]): 103%
growth at 0.01 µM (SK-MEL-28 [11]): 98%
growth at 100 µM (HCT-15): 84%
growth at 10 µM (SW-620): 107%
C50 [12]: 9.9 µM
growth at 10 µM (Hs-578T): 111%
growth at 10 µM (SF-539 [13]): 100%
growth at 10 µM (SK-MEL-28 [14]): 96%
growth at 100 µM (MDA-MB-231): 74%
growth at 10 µM (SK-OV-3): 114%
GI50 (T47D; read-out: GI50): > 100 µM
CC50 (T47D; [19]): > 100 µM
TGI (T47D; read-out: TGI): > 100 µM
GI50 (T47D; read-out: pGI50 (converted)): > 100 µM
CC50 (T47D; [20]): > 100 µM
TGI (T47D; read-out: pTGI): > 100 µM
growth at 100 µM (SF-539 [15]): 112%
growth at 10 µM (SNB-75 [16]): 82%
growth at 10 µM (786-0 [17]): 107%
ΔTm [18]: 38.7 °C
growth at 10 µM (UACC-257): 100%
growth at 10 µM (DU-145): 106%
growth at 0.1 µM (SK-MEL-2): 111%

CC(=O)Nc1cc(CO[Si](C)(C)C(C)(C)C)cc(NC(=O)c2ccc(C(=O)Nc3cccc(NC(=O)CCCN(C)C)c3)cc2)c1
growth at 10 µM (PC-3): 97%
growth at 10 µM (MDA-MB-468): 89%
growth at 10 µM (CCRF-CEM): 109%
GI50 (SK-MEL-5 [1]; read-out: GI50): > 75 µM
LC50 (SK-MEL-5 [1]; read-out: LC50): > 75 µM
TGI (SK-MEL-5 [1]; read-out: TGI): > 75 µM
GI50 (SK-MEL-5 [1]; read-out: pGI50 (converted)): > 75.9 µM
LC50 (SK-MEL-5 [1]; read-out: pLC50 (converted)): > 75.9 µM
TGI (SK-MEL-5 [1]; read-out: pTGI): > 75.9 µM
growth at 10 µM (COLO 205): 98%
growth at 0.1 µM (NCI-H226): 93%
growth at 100 µM (NCI-H322M [2]): 74%
GI50 (U-251; read-out: GI50): > 75 µM
CC50 (U-251; [19]): > 75 µM
TGI (U-251; read-out: TGI): > 75 µM
GI50 (U-251; read-out: pGI50 (converted)): > 75.9 µM
CC50 (U-251; [20]): > 75.9 µM
TGI (U-251; read-out: pTGI): > 75.9 µM
growth at 0.1 µM (SNB-75 [3]): 83%
growth at 10 µM (OVCAR-4): 85%
growth at 10 µM (SF-295): 95%
growth at 0.1 µM (786-0 [4]): 93%
growth at 1 µM (OVCAR-3 [5]): 109%
growth at 10 µM (A498): 77%
growth at 10 µM (LOX IMVI): 82%
growth at 10 µM (SK-MEL-5 [6]): 89%
growth at 0.01 µM (OVCAR-3 [7]): 100%
growth at 10 µM (NCI/ADR-RES): 88%
growth at 1 µM (UO-31 [8]): 105%
growth at 100 µM (UO-31 [9]): 89%
growth at 0.1 µM (NCI-H322M [10]): 95%
growth at 0.01 µM (SK-MEL-28 [11]): 98%
growth at 100 µM (HCT-15): 82%
growth at 10 µM (SW-620): 99%
C50 [12]: 5 µM
growth at 10 µM (Hs-578T): 111%
growth at 10 µM (SF-539 [13]): 89%
growth at 10 µM (SK-MEL-28 [14]): 87%
growth at 100 µM (MDA-MB-231): 96%
growth at 10 µM (SK-OV-3): 103%
GI50 (T47D; read-out: GI50): > 75 µM
CC50 (T47D; [19]): > 75 µM
TGI (T47D; read-out: TGI): > 75 µM
GI50 (T47D; read-out: pGI50 (converted)): > 75.9 µM
CC50 (T47D; [20]): > 75.9 µM
TGI (T47D; read-out: pTGI): > 75.9 µM
growth at 100 µM (SF-539 [15]): 88%
growth at 10 µM (SNB-75 [16]): 73%
growth at 10 µM (786-0 [17]): 95%
ΔTm [18]: 47.2 °C
growth at 10 µM (UACC-257): 87%
growth at 10 µM (DU-145): 97%
growth at 0.1 µM (SK-MEL-2): 102%
